The target in this assay is T1, CYP199A4 (Rhodopseudomonas palustris, UniProt Q2IU02).
T1 sequence (Q2IU02 1-410): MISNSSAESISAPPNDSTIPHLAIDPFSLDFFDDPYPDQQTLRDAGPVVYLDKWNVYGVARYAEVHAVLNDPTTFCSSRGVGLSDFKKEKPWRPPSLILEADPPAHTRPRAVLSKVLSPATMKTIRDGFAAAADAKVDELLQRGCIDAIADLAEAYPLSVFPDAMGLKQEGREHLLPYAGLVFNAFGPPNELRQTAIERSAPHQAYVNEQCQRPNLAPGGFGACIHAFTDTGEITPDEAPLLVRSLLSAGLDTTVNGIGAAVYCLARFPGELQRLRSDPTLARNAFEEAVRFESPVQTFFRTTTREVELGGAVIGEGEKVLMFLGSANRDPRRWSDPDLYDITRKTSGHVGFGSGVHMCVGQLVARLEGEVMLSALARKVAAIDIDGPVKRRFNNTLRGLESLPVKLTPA
Description: UV-vis spectral titration. The assay is classed as binding.

`CC(=O)c1ccc(C(=O)O)cc1` [4-acetylbenzoic acid]: the dissociation constant (Kd) (as a rule, a measure of binding affinity in units of concentration) was 140 ± 5 µM.

The values above are taken from PMC10795798 (Journal of the American Chemical Society, 2023).
